In publication PMC12067444, “Synthesis and Pharmacological Characterization of Novel Peripheral Cannabinoid-1 Receptor Blockers Based on a Tricyclic Scaffold” (Journal of Medicinal Chemistry, 2025):
Several values for one entry are separate records, joined by “and”; a condition that tells them apart may be missing. Identical values can stand only once.

How the values were obtained:
TA98 = assay: Mini-Ames assay, strain TA98; format: cell-based; settings: Salmonella typhimurium
Procedure: (§1) Mini Am es assay. To conduct the assay, top agar was melted with a microwave and maintained at a temper atur e ≥47 °C in a water bath. T he assay was performed using a heat block set to 45 °C ± 2 °C. 12 × 75 mm test tubes were prepared in duplicates. For each concentration, the following components were added sequentially to a test tube:
(§2) […] The mixture was vortexed and then dispensed into w ells using a dispo sable pipette. The plates wer e then incubated at 37±2 °C for approximately 48 to 72 hours.
(§3) BBbbbb BBBBbbbb BBBB = AAAAbbbbbbAAbb nnnnnnbbbbbb bboo bbbbAAbbbbbbbbnnbbbb oobbbb bbbb eeee dd bbbbbb AAbbbbnn gg AAAAbbbbbbAAbb nnnnnnbbbbbb bbBB bbbbAAbbbbbbbbnnbbbb BBbbbb DDDDDDDD nn bbAAbbbbaaAAbb AAbbbbnnaa The mutagenicity of the compound was determined by evaluating the number of revertant colonies in strains TA98 and TA100. A compound was […]
(§4) related and if the fold increase in revertants (F) was equal to or greater than 2 for […]
(§5) background lawn growth on the agar plates. A scoring system ranging from 0 to 4 […]
growth, respectively. A score of 4 signified full '100%' growth. […]
(§6) background lawn and required magnification for visualization. […]

TA100 = assay: Mini-Ames assay, strain TA100; format: cell-based
Procedure: as §1, §2, §3, §4, §5
complete cytotoxicity, while scores 1, 2, and 3 represented 25%, 50%, and 75% growth, respectively. A score of 4 signified full '100%' growth. The background […]
as §6

mouse CB1R = target: T1, mouse CB1R (Mus musculus, UniProt P47746); assay: Radioligand competition displacement binding, [3H]CP-55,940, mouse brain membranes; settings: [3H]CP-55,940 displacement, mouse brain membranes; read-out: CB1R mKi
T1 construct: crude membranes from mouse brain; from tissue; host or cells: mouse brain cortex (without cerebellum) membranes, C57Bl/6Jhsd mice
T1 sequence (P47746 whole entry): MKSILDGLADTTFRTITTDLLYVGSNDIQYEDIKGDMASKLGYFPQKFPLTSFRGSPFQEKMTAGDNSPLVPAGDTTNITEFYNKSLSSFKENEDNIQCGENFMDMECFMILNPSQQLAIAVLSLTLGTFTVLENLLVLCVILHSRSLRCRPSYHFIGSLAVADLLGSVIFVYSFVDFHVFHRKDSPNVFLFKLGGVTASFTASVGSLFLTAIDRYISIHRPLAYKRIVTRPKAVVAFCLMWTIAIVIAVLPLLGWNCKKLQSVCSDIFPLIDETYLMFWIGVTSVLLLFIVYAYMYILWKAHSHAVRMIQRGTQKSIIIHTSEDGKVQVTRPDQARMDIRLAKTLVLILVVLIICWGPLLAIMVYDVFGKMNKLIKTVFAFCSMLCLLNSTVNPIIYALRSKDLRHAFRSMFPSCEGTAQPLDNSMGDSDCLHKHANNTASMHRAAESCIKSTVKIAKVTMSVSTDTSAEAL
Procedure: (§7) BNS compounds’ binding to CB1R and CB2R was assessed in competition displacement assays using [^3H]CP-55,940 as the radioligand and crude membranes from mouse brain or human cells overexpressing the CB1R or CB2R. All data were in triplicates with Ki values determined from three independent experiments. See SI for a detailed procedure.
Supplementary Experimental Methods
Brain membrane preparation for CB1R b i nd i ng . The mouse cortex, excluding the cerebellum, was dissected from 6-week-old C57Bl/6Jhsd mice (Harlan, Israel). The tissue was homogenized in 4 mL Buffer 1 (320 mM sucrose, 2 mM EDTA, 5 m M MgCl 2) using a glass-Teflon homogenizer and Hei-T ORQUE 200 (Heidolph; Cat# 17-012- 002- 25 -1) homogenizer set to 132 rpm. After homogenization, the mixture was centrifuged at 1,600 × g for 10 min at four °C, and the resulting supernatant was kept on ice. The pellet (P1) was discarded, and the remaining supernatant was subje cted to additional rounds of resuspension in 4 mL Buffer 1 followed by centrifugations, repeating this process three times. The pellets obtained from these centrifugations were discarded, and the three supernatant fractions were combined and subjected to higher-speed centrifugation at 39,000 × g for 15 min at f ou r °C. […] This resuspended pellet ( P 2 ) was incubated at 37 °C for 10 min and then centrifuged at 23, 000 × g for 10 min at 4°C.
After centrifugation, the pellet (P2) was resuspended in 5 mL Buffer 2 and further incubated at 30 °C for 40 min. Following this incubation, the suspension was centrifuged at 11,000 × g for 15 min at 4 °C. The pellet (P2) was resuspended in 2 mL Buffer 3 containing 50 mM TRIS HCl pH 7.4, 1 mM EDTA, and 3 mM MgCl 2. T h e protein concentration of the final suspension was determined using the BCA assay.
Subsequently, the suspension was diluted to a final concentration of 2 mg/mL in Buffer 3, aliquoted on ice, and stored at - 80 °C for further use.
(§8) CB1R and CB2R binding. Binding to the CB1R/CB2R was asse ss ed using competition displacement as says with [ 3H] CP -55,940 as the radioligand. Purified membranes from the mouse brain were utilized for CB1R assessment (as described above). Purified […]
membranes from cells overexpressing human CB2R ( Char les River CAT # A618) w e r e employed for CB2R evaluation.
For mouse CB1R binding assays, the novel compounds were dissolved in dimethyl sulfoxide (DMSO) to reach a final concentration of 10 mM. Each compound was then diluted in Buffer 3 (as described above) supplemented with 0.14% BSA, resulting in concentrations ranging from 10^-4 M to 10^-10 M. Triplicates of 100 µL of each concentration were dispensed into siliconized glass tubes. At the same time, 100 µL of Buffer 3 with 0.14% BSA was dispensed into three tubes as blanks. CB1R b r a i n membranes (20 µg) were added to each tube and diluted with 800 µL Buffer 3 with 0.14% BSA. Subsequently, 5 nM of [ 3H] CP -55,940 (100 µL) was added to each tube.
The tubes were sealed with parafilm and incubated with shaking (120 rpm) in a water bath at 30 °C for 1 hour. Following incubation, 2 mL of cold Buffer 4 (50 mM TRIS HCl pH 7.4, 1 mg/mL BSA) was added to each tube.
To harvest the content of each tube, a Brandel M-24R Vacuum Harvester was employed, with a wet WHATMAN GF/B filter paper (Fired) (one membrane for 12 tubes) placed in the harvester after being washed twice with Buffer 4. The filter membrane in the harvester absorbed the full content of each tube. Then, the filter membrane was wash ed six times with Buffer 4. Each filter -glass membrane tube wa s excised and transferred to a 20 mL glass tube co ntaining a 5 mL ULTIMA GOLD scintillation cocktail. […]

P-gp (MDR1-MDCKII cells) = P-gp (MDR1-MDCKII cells) (Homo sapiens, UniProt P08183); assay: Bidirectional permeability in MDR1-MDCKII cells with and without GF120918
Chain of P-gp (MDR1-MDCKII cells) (P08183 whole entry): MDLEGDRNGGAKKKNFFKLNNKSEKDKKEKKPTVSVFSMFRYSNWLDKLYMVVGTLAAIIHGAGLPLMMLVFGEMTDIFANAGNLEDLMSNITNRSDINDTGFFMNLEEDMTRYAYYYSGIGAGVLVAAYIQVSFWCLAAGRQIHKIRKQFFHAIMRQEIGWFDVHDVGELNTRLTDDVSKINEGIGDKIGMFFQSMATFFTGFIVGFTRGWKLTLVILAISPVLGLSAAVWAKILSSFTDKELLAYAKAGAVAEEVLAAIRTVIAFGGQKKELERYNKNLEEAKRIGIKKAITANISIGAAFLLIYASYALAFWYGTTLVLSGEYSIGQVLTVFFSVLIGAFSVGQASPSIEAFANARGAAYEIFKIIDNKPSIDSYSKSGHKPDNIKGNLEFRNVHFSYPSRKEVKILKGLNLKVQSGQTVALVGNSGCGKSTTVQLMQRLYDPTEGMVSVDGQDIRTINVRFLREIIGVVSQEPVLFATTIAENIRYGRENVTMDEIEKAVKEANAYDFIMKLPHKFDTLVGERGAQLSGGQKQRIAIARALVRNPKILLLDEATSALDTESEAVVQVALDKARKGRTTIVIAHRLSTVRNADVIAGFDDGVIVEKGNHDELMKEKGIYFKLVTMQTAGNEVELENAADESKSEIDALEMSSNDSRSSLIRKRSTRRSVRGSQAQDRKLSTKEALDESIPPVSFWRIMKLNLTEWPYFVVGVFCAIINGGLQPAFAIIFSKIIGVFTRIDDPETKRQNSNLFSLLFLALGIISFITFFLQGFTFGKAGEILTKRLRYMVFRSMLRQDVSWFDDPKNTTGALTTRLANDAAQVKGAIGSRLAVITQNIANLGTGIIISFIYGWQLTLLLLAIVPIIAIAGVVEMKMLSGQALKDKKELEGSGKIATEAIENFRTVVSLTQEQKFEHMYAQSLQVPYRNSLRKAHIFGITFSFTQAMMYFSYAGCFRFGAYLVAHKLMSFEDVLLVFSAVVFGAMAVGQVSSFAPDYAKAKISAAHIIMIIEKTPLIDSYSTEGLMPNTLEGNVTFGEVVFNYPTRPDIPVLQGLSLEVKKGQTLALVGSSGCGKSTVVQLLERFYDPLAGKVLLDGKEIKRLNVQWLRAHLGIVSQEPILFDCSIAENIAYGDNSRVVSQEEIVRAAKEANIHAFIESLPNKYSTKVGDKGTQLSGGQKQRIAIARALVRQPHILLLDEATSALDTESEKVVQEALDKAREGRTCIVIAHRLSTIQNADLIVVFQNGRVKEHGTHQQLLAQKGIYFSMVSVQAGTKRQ
Procedure: (§9) MDR1-MDCKII cells were seeded onto […] (PET) in a 96-well insert system. Test and reference compounds were administered to the apical (A-to-B) and basolateral (B-to-A) sides of the cell monolayer. Permeation of the compounds in both directions was assessed, with and without a P-glycoprotein (P-gp) inhibitor (GF120918). […] After a 2.5-h incubation period, each compound’s permeability and efflux ratio were calculated as described in the SI. […]
(§10) Bidirectional permeability assessment in MDR1-MDCK cells. Test and reference compounds were quantified using LC -MS/MS ana lysis based on th e peak ar ea r atio of analyte to internal standard (IS). T he apparent permeability coefficient (Papp) in cm/s was computed using the equation: Pa pp = (dCr/d t ) × V r / ( A × C 0), where dCr/ d t […]
(§11) represents the cumulative concentration of the compound in the receiver chamber over time (µM/s), Vr is the solution volume in the receiver chamber (0.075 mL on the apical side, 0.25 mL on the basolateral side), A is the surface area for transport (0.0804 cm2 f or the monolayer ar ea), and C0 is the initial concentration in the donor chamber ( µM) .
(§12) The efflux ratio was determined using the equation Efflux Ratio = P a pp ( B:
(§13) A ) / Pa pp (A: B) . […]
(§14) Additionally, the percent of lucifer yellow in the basolateral well was calculated using the equation:
(§15) Lucif er yellow = VV bbbbbbbbbbbbbbbbbbbb ×RR FFFF bbbbbbbbbbbbbbbbbbbb ×100 VV bbaaaaaa bbbb ×RRRRRR bbaaaaaa bbbb+VV bbbbbbbbbbbbbbbbbbbb ×RRFFFF bbbbbbbbbbbbbbbbbbbb wher e RFUApical and RFUBasolateral demote the r elative f luor escence unit values of lucif er yellow in the apical and basolateral wells, respectively, and VApical and VBasolateral represent the volumes of apical and basolateral wells (0.075 mL and 0.25 mL, r espectively) . T he % Lucif er Yellow should be less than 2, indicating minimal leakage. […]

P-gp (MDR1) = P-gp (MDR1) (Homo sapiens, UniProt P08183); assay: as above; settings: dog
Chain of P-gp (MDR1) (P08183 whole entry): as above
Procedure: as §9, §10, §11, §12, §13, §14, §15

human CB2R = target: T2, human CB2R (Homo sapiens, UniProt P34972); assay: Radioligand competition displacement binding, [3H]CP-55,940, membranes with human CB2R; settings: [3H]CP-55,940 displacement, read-out: CB2R hKi
T2 construct: purchased PerkinElmer; Charles River RBXCB2M400UA; A618
T2 sequence (P34972 whole entry): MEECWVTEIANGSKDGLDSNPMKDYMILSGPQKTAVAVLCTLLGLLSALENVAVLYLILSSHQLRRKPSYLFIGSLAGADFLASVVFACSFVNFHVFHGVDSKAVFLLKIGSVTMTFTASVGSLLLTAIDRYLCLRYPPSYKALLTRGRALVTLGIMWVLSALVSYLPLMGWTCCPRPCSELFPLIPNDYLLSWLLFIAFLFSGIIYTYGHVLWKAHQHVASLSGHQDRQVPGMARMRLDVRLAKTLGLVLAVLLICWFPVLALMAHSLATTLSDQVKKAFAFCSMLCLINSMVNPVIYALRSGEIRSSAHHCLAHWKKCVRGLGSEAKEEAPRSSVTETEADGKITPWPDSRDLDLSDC
Procedure: as §7
Supplementary Experimental Methods […]
as §8
membranes from cells overexpressing human CB2R ( Char les River CAT # A618) w e r e employed for CB2R evaluation. […]
Radioligand binding assays were performed to asse ss the binding affinity of the different compounds to hCB1R (RBHCB1M4 00UA; Per kinElmer) or hCB 2R
(RBXCB2 M400UA; PerkinElmer). Competition displacement as says w ere employed, […]
utilizing [3H] C P -55,940 as the radioligand and crude membranes from humans for CB1 R or CB2 R. T he compounds were tested at various concentrations (eight points with a five-fold serial dilution starting at two m M) , and their ability to displace [3H] CP - 55, 940 was evaluated. Upon completion of the binding assays, the reaction mixture was filtered through GF/C plates, followed by four washes with cold wash buffer. After drying for one hour, 50 μL of Perkin Elmer Microscint 20 cocktail was added to the filter plate wells, and the bound [3H] C P -55,940 radioligand was measured using a β counter. All data points were duplicated, and Ki values were determined from two independent experiments using GraphPad Prism 7.02 analysis software, extracted through nonlinear regression analysis. […]
MgCl 2. The tissue was homogenized using a glass -Teflon and Hei-T ORQUE 200 homogenizer (Heidolph; Cat#17- 012- 002- 25 -1) set to 132 rpm. The resulting suspen sion underwent centrifugation at 48,000 × g for 20 min at four °C, and the supernatant was discarded. The pellet obtained was homogenized again and subjected to a second centrifugation under the same conditions. Subsequently, the resulting pellet […]
mM EGTA, 9 mM MgCl 2, and 150 mM NaCl, followed by homogenization. The protein concentration of the suspension was determined using the BCA assay, and the suspen sion was diluted to a final concentration of 2 mg/mL in assay buffer. The prepared suspension was aliquoted on ice and stored at - 80 °C for further use.

[1] = Salmonella typhimurium, 2 μg/well

Nc1ccc2cc3ccccc3cc2c1 [2-aminoanthracene (2-AA), 2-aminoanthracene, reference compound]
F value (TA98; 2 μg/well): 31.70 | Number of revertants MEAN (TA98; 2 μg/well): 348.67 | solubility (TA100): P0 | F value (TA100; [1]): 8.00 | Number of revertants MEAN (TA100; [1]): 317.33

O=[N+]([O-])c1ccc2c(c1)Cc1ccccc1-2 [2-nitrofluorene (2-NF), 2-nitrofluorene, reference compound]
F value (TA98; 4 μg/well): 14.00 | Number of revertants MEAN (TA98; 4 μg/well): 102.67

CNC(=O)NC1CCCOc2c1nn(-c1ccccc1Cl)c2-c1ccc(Cl)cc1 (stereo not drawn) [BNS813, 1-[2-(2-Chlorophenyl)-3-(4-chlorophenyl)-5,6,7,8-tetrahydrooxepino[3,2-c]pyrazol-8-yl]-3-methyl-urea]
Ki (mouse CB1R): 1130 nM

CCOC(=O)N1CCC(C(=O)NC2CCCOc3c2nn(-c2ccccc2Cl)c3-c2ccc(Cl)cc2)CC1 (stereo not drawn) [BNS816, Ethyl-4-((2-(2-chlorophenyl)-3-(4-chlorophenyl)-5,6,7,8-tetrahydro-2H-oxepino[3,2-c]pyrazol-8-yl)carbamoyl)piperidine-1-carboxylate]
Ki (mouse CB1R): 8.9 nM and 8.93 nM | P-gp substrate (P-gp (MDR1-MDCKII cells); MDR1-MDCKII cells): no | Rank Papp (P-gp (MDR1-MDCKII cells); MDR1-MDCKII permeability rank): Hi gh | Papp A→B at 2.5 h (P-gp (MDR1); MDCK-MDR1): 6.99 ×10⁻⁶ cm/s | Papp B→A at 2.5 h (P-gp (MDR1); MDCK-MDR1): 5.37 ×10⁻⁶ cm/s | efflux ratio at 2.5 h (P-gp (MDR1); MDCK-MDR1): 0.77 | recovery at 2.5 h (P-gp (MDR1); MDCK-MDR1, Mean recovery % A to B, without GF120918): 41.6% | recovery at 2.5 h (P-gp (MDR1); MDCK-MDR1, Mean recovery % B to A, with GF120918): 61.4% | recovery at 2.5 h (P-gp (MDR1); MDCK-MDR1, Mean recovery % B to A, without GF120918): 48.8% | Ki (human CB2R): 1530 nM
